Experiments:
[1] = biological target: recombinant human S1P1 receptor (Homo sapiens, UniProt P21453); experiment: GTPγS assay to determine EC50 values; type: biochemical; conditions: 35S-GTPγS binding, membrane preparations of CHO cells expressing recombinant human S1P1 receptor
Method: GTPγS binding assays are performed in 96 well microtiter plates (Nunc, 442587) in a final volume of 200 μl, using membrane preparations of CHO cells expressing recombinant human S1P1 receptor. Assay conditions are 20 mM Hepes (Fluka, 54461), 100 mM NaCl (Fluka, 71378), 5 mM MgCl2 (Fluka, 63064), 0.1% BSA (Calbiochem, 126609), 1 μM GDP (Sigma, G-7127), 2.5% DMSO (Fluka, 41644), 50 pM ^35S-GTPγS (Amersham Biosciences, SJ1320). The pH is 7.4. Test compounds are dissolved and diluted in 100% DMSO and pre-incubated at room temperature for 30 min in 150 μl of the above assay buffer, in the absence of ^35S-GTPγS. After addition of 50 μl of ^35S-GTPγS, the assay is incubated for 1 h at rt. The assay is terminated by transfer of the reaction mixture to a Multiscreen plate (Millipore, MAHFC1H60) using a cell harvester from Packard Biosciences, and the plates are washed with ice-cold 10 mM Na2HPO4/NaH2PO4 (70%/30%), dried, sealed at the bottom and, after addition of 25 μl MicroScint20 (Packard Biosciences, order#6013621), sealed on the top. Membrane-bound ^35S-GTPγS is measured with a TopCount from Packard Biosciences.
EC50 is the concentration of agonist inducing 50% of the maximal specific ^35S-GTPγS binding. Specific binding is determined by subtracting non-specific binding from maximal binding. Maximal binding is the amount of cpm bound to the Multiscreen plate in the presence of 10 μM of S1P. Non-specific binding is the amount of binding in the absence of an agonist in the assay. […] The EC50 values were determined according to the method described above: […]

circulating lymphocytes = experiment: Assessment of in vivo efficacy: circulating lymphocytes after oral administration; conditions: 6 h after oral administration of 10 mg/kg to normotensive male Wistar rats, as compared to vehicle-only group
Method: The efficacy of the compounds of Formula (I) is assessed by measuring the circulating lymphocytes after oral administration of 3 to 30 mg/kg of a compound of Formula (I) to normotensive male Wistar rats. The animals are housed in climate-controlled conditions with a 12 h-light/dark cycle, and have free access to normal rat chow and drinking water. Blood is collected before and 3, 6 and 24 h after drug administration. Full blood is subjected to hematology using Advia Hematology system (Bayer Diagnostics, Zurich, Switzerland).
All data are presented as mean±SEM. Statistical analyses are performed by analysis of variance (ANOVA) using Statistica (StatSoft) and the Student-Newman-Keuls procedure for multiple comparisons. The null hypothesis is rejected when p<0.05.

Chain of recombinant human S1P1 receptor (P21453 whole entry): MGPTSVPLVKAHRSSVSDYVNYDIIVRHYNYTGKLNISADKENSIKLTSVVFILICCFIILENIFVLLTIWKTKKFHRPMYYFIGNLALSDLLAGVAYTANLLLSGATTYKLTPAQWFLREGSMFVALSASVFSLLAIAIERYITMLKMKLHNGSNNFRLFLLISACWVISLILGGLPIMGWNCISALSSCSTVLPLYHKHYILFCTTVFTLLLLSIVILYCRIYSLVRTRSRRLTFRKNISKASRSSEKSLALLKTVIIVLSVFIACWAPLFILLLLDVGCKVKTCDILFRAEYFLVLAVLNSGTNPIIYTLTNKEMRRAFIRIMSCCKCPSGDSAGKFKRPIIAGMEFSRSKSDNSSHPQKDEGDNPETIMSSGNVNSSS

| EC50 [1] [nM] | Compound | Lymphocyte counts (circulating lymphocytes) [%] |
| --- | --- | --- |
| 1.3 | CCc1cc(C=CC(=O)c2sc(C)c3c2CC2C3C2(C)C)cc(C)n1 [Example 1, 3-(2-Ethyl-6-methyl-pyridin-4-yl)-1-((1aS,5aR)-1,1,2-trimethyl-1,1a,5,5a-tetrahydro-3-thia-cyclopropa[a]pentalen-4-yl)-propenone] | – |
| 4.6 | CCc1cc(CCC(=O)c2sc(CC)c3c2CCC(C)(C)C3)cc(C)n1 [Example 4, 1-(3-Ethyl-5,5-dimethyl-4,5,6,7-tetrahydro-benzo[c]thiophen-1-yl)-3-(2-ethyl-6-methyl-pyridin-4-yl)-propan-1-one] | – |
| – | CCc1cc(-c2nnc(-c3sc(C)c4c3C[C@@H]3[C@H]4C3(C)C)o2)cc(C)n1 [Example 5, 2-Ethyl-6-methyl-4-[5-((1aS,5aR)-1,1,2-trimethyl-1,1a,5,5a-tetrahydro-3-thia-cyclopropa[a]pentalen-4-yl)-[1,3,4]oxadiazol-2-yl]-pyridine] | −77 |
| 3.4 | Cc1cc(-c2nnc(-c3sc(C)c4c3C[C@@H]3[C@H]4C3(C)C)o2)cc(C)n1 [Example 8, 2,6-Dimethyl-4-[5-((1aS,5aR)-1,1,2-trimethyl-1,1a,5,5a-tetrahydro-3-thia-cyclopropa[a]pentalen-4-yl)-[1,3,4]oxadiazol-2-yl]-pyridine] | – |
| 3.7 | CCc1cc(-c2noc(-c3sc(C)c4c3CC3C4C3(C)C)n2)cc(C)n1 (centres unmarked) [Example 14, 2-Ethyl-6-methyl-4-[5-(1,1,2-trimethyl-1,1a,5,5a-tetrahydro-3-thia-cyclopropa[a]pentalen-4-yl)-[1,2,4]oxadiazol-3-yl]-pyridine] | – |
